The source of these data is publication PMC8286840, “Identifying SARS-CoV-2 antiviral compounds by screening for small molecule inhibitors of Nsp3 papain-like protease” (Biochemical Journal, 2021).

Experiment [1] addresses T1, SARS-CoV-2 PLpro (nsp3 1564–1878) (Severe acute respiratory syndrome coronavirus 2, UniProt P0DTD1). Put plainly: biochemical. Details: FRET-quenched peptide (Pro3) cleavage by PLpro, 10 min pre-incubation, slope over 20 min, normalised to no-compound control. Conditions: low concentration screen, read-out: % of control remaining.
Experiment [2] addresses T1, SARS-CoV-2 PLpro (nsp3 1564–1878). Put plainly: biochemical. The following applies: high concentration screen, read-out: % of control remaining. Details: FRET-quenched peptide (Pro3) cleavage by PLpro, 10 min pre-incubation, slope over 20 min, normalised to no-compound control.

Counter-ions that a name gives are not always drawn. Like-named read-outs stand apart in the source and are kept apart here.

As for `CN(CCOc1ccc(C[C@H](Nc2ccccc2C(=O)c2ccccc2)C(=O)O)cc1)c1ccccn1` [GW1929], the remaining activity at 1.25 µM in experiment [1] (Well no.=8120) was found to be 97.1%. The remaining activity at 3.75 µM was 96.6% in experiment [2] (Well no.=477) and 94.2% in experiment [2] (Well no.=8120).

For the molecule `CN(C)c1cc2c(Nc3ccc4c(cnn4Cc4ccccc4)c3)ncnc2cn1` [GW2974], in experiment [1] (Well no.=523), the remaining activity at 1.25 µM was determined as 103%. Besides, the remaining activity at 3.75 µM in experiment [2] (Well no.=523) turned out to be 100%.

In the case of `CC(C)c1onc(-c2c(Cl)cccc2Cl)c1COc1ccc(/C=C/c2cccc(C(=O)O)c2)c(Cl)c1` [GW4064], the remaining activity at 1.25 µM in experiment [1] (Well no.=5314) worked out at 101%. For the same molecule, the remaining activity at 3.75 µM in experiment [2] (Well no.=5314) was determined as 98.2%.

Turning to `O=C1Nc2ccc(I)cc2/C1=C/c1cc(Br)c(O)c(Br)c1` [GW5074], in experiment [1] (Well no.=525), the remaining activity at 1.25 µM stood at 97.2%. In experiment [2] (Well no.=525), the remaining activity at 3.75 µM was 96.1%.

Take `CC(C)(Sc1ccc(CCN(CCCCC2CCCCC2)C(=O)NC2CCCCC2)cc1)C(=O)O` [GW7647]: the remaining activity at 1.25 µM in experiment [1] (Well no.=621) is 95.2%. For the same molecule, the remaining activity at 3.75 µM in experiment [2] (Well no.=621) was 96.3%.

On to `O=C(O)CCc1ccc(NCc2cccc(Oc3ccccc3)c2)cc1` [GW9508], for which the remaining activity at 1.25 µM in experiment [1] (Well no.=5182) is 103%; in experiment [1] (Well no.=8531), 97.9%. Further, the results for the remaining activity at 3.75 µM in experiment [2] (Well no.=5182) and in experiment [2] (Well no.=8531) were 99.8% and 98.8%, respectively.

For `O=C(Nc1ccccc1)c1cc([N+](=O)[O-])ccc1Cl` [GW9662], in experiment [1] (Well no.=1122), the remaining activity at 1.25 µM was 88.3%. In addition, the remaining activity at 3.75 µM in experiment [2] (Well no.=1122) is 89.4%.

On to `Cn1cc(/C=C2\C(=O)Nc3cccnc32)c2ccccc21` [GW441756], for which the remaining activity at 1.25 µM in experiment [1] (Well no.=2791) came out at 103%. Also, in experiment [2] (Well no.=2791), the remaining activity at 3.75 µM came to 103%.

Consider `O=C(NC1CCOCC1)c1ccc(-c2cc(-c3c[nH]nc3-c3ccccn3)ccn2)cc1` [GW788388], for which the remaining activity at 1.25 µM in experiment [1] (Well no.=5067) was found to be 102%. Besides, in experiment [2] (Well no.=5067), the remaining activity at 3.75 µM came to 106%.

For the molecule `O=C(NCC1CCOCC1)c1cnc(Nc2ccc(Cl)cc2Cl)nc1C(F)(F)F` [GW842166X], the remaining activity at 1.25 µM in experiment [1] (Well no.=5085) came to 97.9%. Further, the remaining activity at 3.75 µM in experiment [2] (Well no.=5085) was found to be 100%.

Regarding `O=C1Nc2ccc(I)cc2/C1=C/c1cc(Br)c(O)c(Br)c1` [GW 5074 - 3-(3,5-Dibromo-4-hydroxy-benzylidene)-5-iodo-1,3-dihydro-indol-2-one], in experiment [1] (Well no.=2392), the remaining activity at 1.25 µM stood at 97.9%. Moreover, the remaining activity at 3.75 µM in experiment [2] (Well no.=2392) was 101%.

As to `Cn1cc(/C=C2\C(=O)Nc3cccnc32)c2ccccc21` [GW 441756 - 1,3-Dihydro-3-[(1-methyl-1H-indol-3-yl)methylene]-2H-pyrrolo[3,2-b]pyridin-2-one], the remaining activity at 1.25 µM in experiment [1] (Well no.=2488) was found to be 102%. Also, the remaining activity at 3.75 µM in experiment [2] (Well no.=2488) was 100%.

Turning to `CS(=O)(=O)CCNCc1nc(-c2ccc3ncnc(Nc4ccc(OCc5cccc(F)c5)c(Cl)c4)c3c2)cs1` [GW 583340 dihydrochloride - N-[3-Chloro-4-[(3-fluorophenyl)methoxy]phenyl]-6-[2-[[[2-(methylsulfonyl)ethyl]amino]methyl]-4-thiazolyl]-4-quinazolinamine dihydrochloride], the remaining activity at 1.25 µM in experiment [1] (Well no.=2490) worked out at 94.4%. Also, the remaining activity at 3.75 µM in experiment [2] (Well no.=2490) worked out at 94.9%.

Regarding `NC(=O)c1ccc(CNC(=O)NC[C@H]2CN(Cc3ccc(Cl)c(Cl)c3)CCO2)cc1` [GW 766994], the remaining activity at 1.25 µM in experiment [1] (Well no.=8595) amounted to 104%. Moreover, the remaining activity at 3.75 µM in experiment [2] (Well no.=8595) stood at 103%.

Regarding `COc1cc2ncn(-c3cc(OCc4ccccc4C(F)(F)F)c(C(N)=O)s3)c2cc1OC` [GW 843682X - 5-(5,6-Dimethoxy-1H-benzimidazol-1-yl)-3-[[2-(trifluoromethyl)phenyl]methoxy]-2-thiophenecarboxamide], the remaining activity at 1.25 µM in experiment [1] (Well no.=2668) is 92.6%. Besides, the remaining activity at 3.75 µM in experiment [2] (Well no.=2668) is 96.9%.

In the case of `CC1=NN=C(c2ccc(N)cc2)c2cc3c(cc2C1)OCO3` [GYKI 52466 hydrochloride], in experiment [1] (Well no.=748), the remaining activity at 1.25 µM came out at 92.9%. Besides, the remaining activity at 3.75 µM in experiment [2] (Well no.=748) was 92.5%.

With `CC1Cc2cc3c(cc2C(c2ccc(N)cc2)=NN1)OCO3` (stereo not shown) [GYKI 52895], the remaining activity at 1.25 µM in experiment [1] (Well no.=414) was 95.2%. The remaining activity at 3.75 µM in experiment [2] (Well no.=414) stood at 95.8%.

As to `N[C@@H]1C=CC=C(C(=O)O)C1` [Gabaculine hydrochloride], the remaining activity at 1.25 µM in experiment [1] (Well no.=13) was determined as 105%. Also, the remaining activity at 3.75 µM in experiment [2] (Well no.=13) is 105%.

As for `NCC1(CC(=O)O)CCCCC1` [Gabapentin], the remaining activity at 1.25 µM in experiment [1] (Well no.=510) stood at 104%; in experiment [1] (Well no.=1755) it was 98.1%. For the same molecule, the remaining activity at 3.75 µM in experiment [2] (Well no.=510) came out at 105%; in experiment [2] (Well no.=1755) it was 100%.

As for `CCOC(=O)c1ccc(OC(=O)CCCCCNC(=N)N)cc1` [Gabexate mesylate], in experiment [1] (Well no.=5092), the remaining activity at 1.25 µM worked out at 97.5%. Besides, in experiment [2] (Well no.=5092), the remaining activity at 3.75 µM stood at 102%.

As to `COc1ccc2c3c1O[C@H]1C[C@@H](O)C=C[C@@]31CCN(C)C2` [Galanthamine], in experiment [1] (Well no.=1707), the remaining activity at 1.25 µM amounted to 105%. Moreover, the remaining activity at 3.75 µM in experiment [2] (Well no.=1707) was 101%.

For `C[C@]12CC[C@H](O)CC1=CC[C@@H]1[C@@H]2CC[C@]2(C)C(n3cnc4ccccc43)=CC[C@@H]12` [Galeterone (TOK-001)], the remaining activity at 1.25 µM in experiment [1] (Well no.=5127) turned out to be 97.5%. The remaining activity at 3.75 µM in experiment [2] (Well no.=5127) turned out to be 99.7%.

Consider `CC[N+](CC)(CC)CCOc1cccc(OCC[N+](CC)(CC)CC)c1OCC[N+](CC)(CC)CC` [Gallamine triethiodide], for which the remaining activity at 1.25 µM in experiment [1] (Well no.=717) was found to be 91.1%; in experiment [1] (Well no.=6753) it was 105%. The remaining activity at 3.75 µM in experiment [2] (Well no.=717) was found to be 87.8%; in experiment [2] (Well no.=6753), 103%.

With `CC(C)=CCC[C@]1(C)C=Cc2c(O)c3c(c(CC=C(C)C)c2O1)O[C@]12C(=C[C@@H]4C[C@H]1C(C)(C)O[C@@]2(C/C=C(/C)C(=O)O)C4=O)C3=O` [Gambogic Acid], the remaining activity at 1.25 µM is 94.4% in experiment [1] (Well no.=3723) and 96.6% in experiment [1] (Well no.=6926). In addition, the figures for the remaining activity at 3.75 µM in experiment [2] (Well no.=3723) and in experiment [2] (Well no.=6926) were 97.8% and 91.9%, respectively.

With `CC(=O)[C@H]1CC[C@H]2[C@@H]3CC[C@H]4C[C@](C)(O)CC[C@]4(C)[C@H]3CC[C@]12C` [Ganaxolone], the remaining activity at 1.25 µM in experiment [1] (Well no.=5901) amounted to 96.3%. For the same molecule, the remaining activity at 3.75 µM in experiment [2] (Well no.=5901) amounted to 94%.

Take `Nc1nc2c(ncn2COC(CO)CO)c(=O)[nH]1` [Ganciclovir]: the remaining activity at 1.25 µM in experiment [1] (Well no.=667) is 99.1%; in experiment [1] (Well no.=2168) it was 97.3%; in experiment [1] (Well no.=8062), 97.2%. Also, the remaining activity at 3.75 µM in experiment [2] (Well no.=667) is 97.3%; in experiment [2] (Well no.=2168), 99.3%; in experiment [2] (Well no.=8062), 97.7%.

For the molecule `CC(C)c1cc(-c2n[nH]c(=O)n2-c2ccc3c(ccn3C)c2)c(O)cc1O` [Ganetespib (STA-9090)], in experiment [1] (Well no.=9028), the remaining activity at 1.25 µM is 85.9%. In experiment [2] (Well no.=9028), the remaining activity at 3.75 µM was determined as 86.1%.
